Source: ChEMBL document CHEMBL4312031, “Discovery of candesartan cilexetic as a novel neddylation inhibitor for suppressing tumor growth” (Eur J Med Chem, 2020)
The source made the active and inactive calls. The calls are words filed in the database; no cut-off is given here.

Columns and labels:
[1] = test system: NCI-H1299; experiment: Antiproliferative activity against human H1299 cells measured after 48 hrs by CCK8 assay; assay type: functional, cell-based; settings: NCI-H1299, 48 h
[2] = test system: MCF7; experiment: Antiproliferative activity against human MCF7 cells measured after 48 hrs by CCK8 assay; assay type: functional, cell-based; settings: MCF7, 48 h
[3] = test system: A549; experiment: Cell cycle arrest in human A549 cells assessed as accumulation at S phase at 25 uM measured after 24 hrs by propidium iodide/RNase A staining based flow cytometry analysis (reference value: 21.54 %); assay type: functional
[4] = test system: A549; experiment: Cell cycle arrest in human A549 cells assessed as accumulation at sub-G1 phase at 25 uM measured after 24 hrs by propidium iodide/RNase A staining based flow cytometry analysis (reference value: 0.89 %); assay type: functional
[5] = test system: A549; experiment: Cell cycle arrest in human A549 cells assessed as accumulation at G2 phase at 75 uM measured after 24 hrs by propidium iodide/RNase A staining based flow cytometry analysis (reference value: 12.69 %); assay type: functional
[6] = test system: A549; experiment: Cell cycle arrest in human A549 cells assessed as accumulation at sub-G1 phase at 75 uM measured after 24 hrs by propidium iodide/RNase A staining based flow cytometry analysis (reference value: 0.89 %); assay type: functional
[7] = test system: A549; experiment: Induction of apoptosis in human A549 cells assessed as early apoptotic cells at 25 uM measured after 48 hrs by AnnexinV-FITC/propidium iodide staining based FACS analysis (reference value: 2.19 %); assay type: functional
[8] = test system: A549; experiment: Induction of apoptosis in human A549 cells assessed as late apoptotic cells at 50 uM measured after 48 hrs by AnnexinV-FITC/propidium iodide staining based FACS analysis (reference value: 1.71 %); assay type: functional
[9] = test system: A549; experiment: Induction of apoptosis in human A549 cells assessed as early apoptotic cells at 75 uM measured after 48 hrs by AnnexinV-FITC/propidium iodide staining based FACS analysis (reference value: 2.19 %); assay type: functional
[10] = test system: A549; experiment: Induction of apoptosis in human A549 cells assessed as late apoptotic cells at 75 uM measured after 48 hrs by AnnexinV-FITC/propidium iodide staining based FACS analysis (reference value: 1.71 %); assay type: functional
[11] = target: T1, NEDD8/NEDD8-conjugating enzyme Ubc12 (Homo sapiens) (UniProt P61081+Q15843); experiment: Inhibition of Nedd8-Ubc12 (unknown origin) assessed as decrease in Ubc12-Nedd8 adduct formation at 50 uM preincubated for 10 mins followed by ATP addition and measured after 30 mins by immunoblot analysis; assay type: protein-complex assay
[12] = target: T2, NEDD8-conjugating enzyme Ubc12 (Homo sapiens) (UniProt P61081); experiment: Inhibition of UBC12 in human A549 cells assessed as decrease in Cullin1-Nedd8 adduct level at 50 uM measured after 6 to 12 hrs by Western blot analysis; assay type: cell-based
T2 sequence (whole entry): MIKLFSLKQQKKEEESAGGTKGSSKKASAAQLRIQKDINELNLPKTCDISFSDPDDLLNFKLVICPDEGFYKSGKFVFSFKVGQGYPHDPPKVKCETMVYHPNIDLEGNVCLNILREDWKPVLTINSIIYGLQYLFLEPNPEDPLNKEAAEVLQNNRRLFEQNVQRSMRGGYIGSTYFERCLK

[13] = target: T2, NEDD8-conjugating enzyme Ubc12 (Homo sapiens); experiment: Inhibition of UBC12 in human A549 cells assessed as decrease in Cullin2-Nedd8 adduct level at 50 uM measured after 6 to 12 hrs by Western blot analysis; assay type: cell-based
[14] = target: T3, NEDD8-conjugating enzyme UBE2F (Homo sapiens) (UniProt Q969M7); experiment: Inhibition of UBE2F in human A549 cells assessed as decrease in Cullin5-Nedd8 adduct level at 50 uM measured after 6 to 12 hrs by Western blot analysis; assay type: cell-based
T3 sequence (whole entry): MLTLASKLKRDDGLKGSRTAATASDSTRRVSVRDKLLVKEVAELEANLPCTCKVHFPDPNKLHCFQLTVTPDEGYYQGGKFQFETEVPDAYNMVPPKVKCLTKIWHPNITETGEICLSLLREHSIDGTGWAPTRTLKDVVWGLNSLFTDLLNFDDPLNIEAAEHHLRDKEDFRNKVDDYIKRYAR

[15] = target: T2, NEDD8-conjugating enzyme Ubc12 (Homo sapiens); experiment: Inhibition of UBC12 in human A549 cells assessed as decrease in Cullin1-Nedd8 adduct level measured after 6 to 12 hrs by Western blot analysis; assay type: cell-based
[16] = target: T2, NEDD8-conjugating enzyme Ubc12 (Homo sapiens); experiment: Inhibition of UBC12 in human A549 cells assessed as decrease in Cullin2-Nedd8 adduct level measured after 6 to 12 hrs by Western blot analysis; assay type: cell-based
[17] = target: T2, NEDD8-conjugating enzyme Ubc12 (Homo sapiens); experiment: Inhibition of UBC12 in human A549 cells assessed as decrease in Cullin3-Nedd8 adduct level measured after 6 to 12 hrs by Western blot analysis; assay type: cell-based
[18] = target: T2, NEDD8-conjugating enzyme Ubc12 (Homo sapiens); experiment: Inhibition of UBC12 in human A549 cells assessed as decrease in Cullin4a-Nedd8 adduct level measured after 6 to 12 hrs by Western blot analysis; assay type: cell-based
[19] = target: T3, NEDD8-conjugating enzyme UBE2F (Homo sapiens); experiment: Inhibition of UBE2F in human A549 cells assessed as decrease in Cullin5-Nedd8 adduct level measured after 6 to 12 hrs by Western blot analysis; assay type: cell-based
[20] = test system: A549; experiment: Induction of apoptosis in human A549 cells assessed as increase in PARP cleavage at 50 to 100 uM by Western blot analysis; assay type: functional, cell-based
[21] = test system: A549; experiment: Antitumor activity against human A549 cells xenografted in nude mouse assessed as decrease in tumor weight at 60 mg/kg, ip qd measured after 22 days; assay type: functional, organism-based
[22] = test system: A549; experiment: Antitumor activity against human A549 cells xenografted in nude mouse assessed as decrease in tumor size at 60 mg/kg, ip qd measured after 22 days; assay type: functional, organism-based
[23] = target: NEDD8/Cullin-1 (Homo sapiens) (UniProt Q13616+Q15843); experiment: Competitive inhibition of Nedd8-cullin1 (unknown origin) adduct formation assessed as decrease in cullin1-Nedd8 adduct formation at 50 uM preincubated for 10 mins followed by ATP addition and measured after 30 mins by immunoblot analysis; assay type: protein assay
[24] = target: T1, NEDD8/NEDD8-conjugating enzyme Ubc12 (Homo sapiens); experiment: Competitive inhibition of Nedd8-Ubc12 (unknown origin) adduct formation assessed as decrease in Ubc12-Nedd8 adduct formation at 50 uM preincubated for 10 mins followed by ATP addition and measured after 30 mins by immunoblot analysis; assay type: protein-complex assay
[25] = test system: A549; experiment: Antitumor activity against human A549 cells xenografted in nude mouse assessed as decrease in tumor weight at 30 mg/kg, ip qd measured after 22 days; assay type: functional, organism-based
[26] = test system: A549; experiment: Antitumor activity against human A549 cells xenografted in nude mouse assessed as decrease in tumor size at 30 mg/kg, ip qd measured after 22 days; assay type: functional, organism-based

Sequence of NEDD8/Cullin-1 (Homo sapiens) (Q13616 whole entry, looked up): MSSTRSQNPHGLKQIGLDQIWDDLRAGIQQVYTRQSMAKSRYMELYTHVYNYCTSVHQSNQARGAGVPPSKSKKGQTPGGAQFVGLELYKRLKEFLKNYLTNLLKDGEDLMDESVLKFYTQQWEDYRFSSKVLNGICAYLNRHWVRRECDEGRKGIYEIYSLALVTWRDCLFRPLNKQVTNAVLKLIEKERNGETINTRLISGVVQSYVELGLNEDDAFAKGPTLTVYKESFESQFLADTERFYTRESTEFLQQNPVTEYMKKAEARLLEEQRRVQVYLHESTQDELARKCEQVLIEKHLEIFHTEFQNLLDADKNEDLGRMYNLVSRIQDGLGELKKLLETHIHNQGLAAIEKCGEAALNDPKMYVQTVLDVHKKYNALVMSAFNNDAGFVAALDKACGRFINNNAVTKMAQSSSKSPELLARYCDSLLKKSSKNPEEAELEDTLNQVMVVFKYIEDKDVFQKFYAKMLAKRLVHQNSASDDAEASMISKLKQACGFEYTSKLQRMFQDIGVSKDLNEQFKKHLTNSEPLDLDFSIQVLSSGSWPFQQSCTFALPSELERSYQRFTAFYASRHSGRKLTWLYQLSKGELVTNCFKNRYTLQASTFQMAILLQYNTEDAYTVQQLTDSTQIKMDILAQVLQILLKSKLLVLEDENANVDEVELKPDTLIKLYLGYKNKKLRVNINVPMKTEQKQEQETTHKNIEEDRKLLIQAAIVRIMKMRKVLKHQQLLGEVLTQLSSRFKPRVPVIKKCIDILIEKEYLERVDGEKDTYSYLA
Sequence of NEDD8/Cullin-1 (Homo sapiens) (Q15843 whole entry, looked up): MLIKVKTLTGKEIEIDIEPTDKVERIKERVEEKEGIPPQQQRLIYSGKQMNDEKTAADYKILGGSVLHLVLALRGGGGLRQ

IC50 [1]: 45.1 µM
IC50 [2]: > 100 µM
inhibition [11]: 100%
inhibition [12]: Active
inhibition [13]: Active
inhibition [14]: Active
inhibition [15]: Dose-dependent effect
inhibition [16]: Dose-dependent effect
inhibition [17]: Dose-dependent effect
inhibition [18]: Dose-dependent effect
inhibition [19]: Dose-dependent effect
inhibition [23]: Active
inhibition [24]: Active
Structure (SMILES): CCOc1nc2cccc(C(=O)OC(C)OC(=O)OC3CCCCC3)c2n1Cc1ccc(-c2ccccc2-c2nn[nH]n2)cc1 (stereo unspecified) [CANDESARTAN CILEXETIL]
Activity [3]: 18.37%
Activity [4]: 9.54%
Activity [5]: 8.15%
Activity [6]: 30.45%
Activity [7]: 4.1%
Activity [8]: 13.36%
Activity [9]: 36.64%
Activity [10]: 14.26%
Activity [20]: Active
Activity [21]: Active
Activity [22]: Active
Activity [25]: Active
Activity [26]: Active
